Measurements published in patent US20100055145A1, “STENT COATINGS FOR REDUCING LATE STENT THROMBOSIS” (Biosensors International Group, priority 2008, published 2010).

What was measured:
[1] = Solubility of BIOLIMUS A9; type: physicochemical
[2] = test system: proliferating animal and human smooth muscle cells; experiment: Growth inhibition of smooth muscle cells in culture; type: cell-based; details: compared with sirolimus
Source text: Like sirolimus and everolimus, BIOLIMUS A9 is rapidly absorbed in tissues and is able to reversibly bind to immunophilins (cytoplasmic proteins) found inside living cells.

[3] = Partition coefficient (log P), reverse phase HPLC

Structure (SMILES): CCOCCO[C@@H]1CC[C@@H](C[C@@H](C)[C@@H]2CC(=O)[C@H](C)/C=C(\C)[C@@H](O)[C@@H](OC)C(=O)[C@H](C)C[C@H](C)/C=C/C=C/C=C(\C)[C@@H](OC)C[C@@H]3CC[C@@H](C)[C@@](O)(O3)C(=O)C(=O)N3CCCC[C@H]3C(=O)O2)C[C@H]1OC [BIOLIMUS A9, 42-O-(2-ethoxyethyl)rapamycin]
- Solubility: 25% ethanol in water ([1]; 25% ethanol in water): Practically insoluble
- Solubility: ethanol ([1]; ethanol): Very soluble
- Solubility: ethyl acetate ([1]; ethyl acetate): Very soluble
- Solubility: methanol ([1]; methanol): Very soluble
- Solubility: water (independent of pH) ([1]; water (independent of pH)): Practically insoluble
- potency of growth inhibition of proliferating smooth muscle cells [2]: potency similar to that of sirolimus
- peak blood levels (after stent implantation): 3 ng/mL
- peak blood level lower than therapeutic levels of oral sirolimus or everolimus following organ transplant (in vivo, po): 20 fold
- Partition Coefficient (E Log Poct): Log Pn-octanol ([3]; As measured by reverse phase HPLC): Log Pn-octanol = 7.63
- partition coefficient (log P) ([3]; pH 7.40, estimated): 7.63
